Measurements from PubChem BioAssay (NCI).
Where “and” joins values, the source holds several entries; their conditions need not be identical. Equal entries are not always repeated.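 Following 48 hours of exposure in 96-well plates, responses at five concentrations were used to interpolate endpoints linearly. Here, GI50 denotes the concentration required for 50% inhibition of growth. TGI marks complete inhibition of growth.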

Tests used:
Assay in all cases: NCI anticancer screen, dose series, 48 h
CAKI-1 renal = tested on: CAKI-1 renal
DU-145 prostate = tested on: DU-145 prostate
EKVX NSCLC = tested on: EKVX NSCLC
HL-60(TB) leukemia = tested on: HL-60(TB) leukemia
HS 578T breast = tested on: HS 578T breast
MOLT-4 leukemia = tested on: MOLT-4 leukemia
NCI-H23 lung = tested on: NCI-H23 lung
SK-MEL-2 melanoma = tested on: SK-MEL-2 melanoma
SK-MEL-5 melanoma = tested on: SK-MEL-5 melanoma
SK-OV-3 ovarian = tested on: SK-OV-3 ovarian

Row | Structure (SMILES) | GI50 (CAKI-1 renal) | TGI (CAKI-1 renal) | GI50 (DU-145 prostate) | TGI (DU-145 prostate) | GI50 (EKVX NSCLC) | TGI (EKVX NSCLC) | GI50 (HL-60(TB) leukemia) | TGI (HL-60(TB) leukemia) | GI50 (HS 578T breast) | TGI (HS 578T breast) | GI50 (MOLT-4 leukemia) | TGI (MOLT-4 leukemia) | GI50 (NCI-H23 lung) | TGI (NCI-H23 lung) | GI50 (SK-MEL-2 melanoma) | TGI (SK-MEL-2 melanoma) | GI50 (SK-MEL-5 melanoma) | TGI (SK-MEL-5 melanoma) | GI50 (SK-OV-3 ovarian) | TGI (SK-OV-3 ovarian)
1 | CCN(CC)CCCC(CNc1ccnc2cc(Cl)ccc12)c1ccc(Cl)cc1 (configuration not stated) | 1480 nM and 547 nM | 3.2 µM and 1.91 µM | 3.84 µM and 4.19 µM | 15.5 µM and 19 µM | 2.11 µM and 1.67 µM | 6.03 µM and 4.11 µM | 1750 nM and 1520 nM | 3.79 µM and 3.62 µM | 1.76 µM and 1.97 µM | 3.82 µM and 4.46 µM | 1560 nM and 1240 nM | 4.91 µM and 4.22 µM | 1870 nM and 2010 nM | 4.42 µM and 5.93 µM | 2.1 µM and 1.59 µM | 4.07 µM and 3.09 µM | 1130 nM | 2.4 µM | 2 µM and 1.82 µM | 4.04 µM and 3.81 µM
2 | N#Cc1c(NN)n(C2OC(CO)C(O)C2O)c2ncnc(N)c12 (configuration not stated) | 61.9 nM | 0.639 µM | 0.0375 µM | 6.26 µM | 0.209 µM |  | 22 nM | 0.109 µM | 0.0382 µM | 0.429 µM | 95 nM | 0.402 µM | 218 nM | 2.47 µM | 0.282 µM | 0.946 µM | 461 nM | 3.05 µM | 0.198 µM | 0.722 µM
3 | C=COCCCOc1ccccc1 |  | > 100 µM | > 100 µM | > 100 µM |  | > 100 µM |  | > 100 µM | > 100 µM | > 100 µM |  | > 100 µM |  | > 100 µM |  | > 100 µM |  | > 100 µM | > 100 µM | > 100 µM
4 | CNC(=O)N(C)N=NCCCl |  | > 100 µM |  | > 100 µM |  | > 100 µM |  | > 100 µM |  | > 100 µM |  | > 100 µM |  | > 100 µM |  | > 100 µM |  | > 100 µM |  | > 100 µM
5 | CCOC(=O)CCCn1c(SC)nc2[nH]cc(-c3ccccc3)c2c1=O | 15800 nM | 45.1 µM | 17.1 µM | > 100 µM | 24.8 µM | 85.8 µM | 1050 nM | 15 µM | 23.8 µM | 77.4 µM | 489 nM | 10.1 µM | 11600 nM | 34.6 µM | 21.6 µM | 45.8 µM | 12900 nM | 25.7 µM | 25.6 µM | 93.6 µM
6 | COc1ccc2c(c1)CCCC(Br)C2=O (configuration not stated) |  | 9.45 µM |  | 44.9 µM |  | 37.2 µM |  | 16.9 µM |  | > 94.3 µM |  | > 48.5 µM |  | 26.3 µM |  | 4.36 µM |  | 9.22 µM |  | 14.3 µM
7 | CC(C)=CCNc1ncnc2c1ncn2C1OC(CO)C(O)C1O (configuration not stated) | 721 nM | 4.74 µM | 0.277 µM | 0.943 µM | 7.79 µM | > 1000 µM | 290 nM | 0.822 µM | 0.684 µM | 4.33 µM | 457 nM | 3.82 µM | 2810 nM | 125 µM | 16.2 µM | 334 µM | 5740 nM | > 1000 µM | 1.75 µM | 33.5 µM
8 | C=C(c1nc2ccc(Cl)cc2[nH]c1=O)C(O)c1ccc(C(O)C(=O)c2nc3ccc(Cl)cc3[nH]c2=O)cc1 (configuration not stated) |  | > 100 µM |  | > 100 µM |  | > 100 µM |  | 41.8 µM |  | > 100 µM |  | > 100 µM |  | > 100 µM |  | > 100 µM |  | > 100 µM |  | > 100 µM
9 | CCN(CC)CCC(CNc1ccnc2cc(Cl)ccc12)c1ccc(OC)cc1 (configuration not stated) | 5850 nM and 2540 nM | 23.2 µM and 15.9 µM | 21.9 µM and 26.7 µM | > 100 µM | 6.44 µM and 12.7 µM | 57.7 µM and > 100 µM | 6590 nM and 3760 nM | 25.3 µM and 20.4 µM | 5.51 µM and 7.53 µM | 23.4 µM and 34.3 µM | 6770 nM and 4680 nM | 41.4 µM and 50.9 µM | 9400 nM and 10000 nM | 26.9 µM and 28.6 µM | 15.4 µM and 2.02 µM | 33.1 µM and 4.07 µM | 1640 nM | 3.09 µM | 13.1 µM and 14.1 µM | 33.4 µM and 46 µM
10 | O=C(CNc1ccc(Cl)cc1)Nc1ccc(-c2nc3ccccc3s2)cc1 | 6800 nM | 20 µM | 3.49 µM | 11.7 µM | 8.02 µM | 24.5 µM | 2230 nM | 6.05 µM | 7.87 µM | 47.6 µM | 811 nM | > 26.6 µM | 2900 nM | 8.8 µM | 8.96 µM | 30.8 µM | 2000 nM | 5.42 µM | 12 µM | > 78.6 µM
11 | NC(=Nc1c([N+](=O)[O-])cnc2ccccc12)N1CCOCC1 |  | > 100 µM |  | > 100 µM |  | > 100 µM |  | > 100 µM |  | > 100 µM |  | > 100 µM |  | > 100 µM |  | > 100 µM |  | > 100 µM |  | > 100 µM
12 | COc1cc(N(CCC#N)CCC#N)ccc1/C(N=Nc1ccc([N+](=O)[O-])cc1)=N/NC(=O)c1cc(Br)ccc1O | 65.9 µg/mL | > 150 µg/mL | 30.3 µg/mL | 70.9 µg/mL | 42.8 µg/mL | > 150 µg/mL | 49.2 µg/mL | > 150 µg/mL | 69.8 µg/mL | > 150 µg/mL | 42.6 µg/mL | 128 µg/mL | 51.2 µg/mL | > 150 µg/mL | 44.2 µg/mL | > 150 µg/mL | 26.3 µg/mL | 46.9 µg/mL | 37.3 µg/mL | > 150 µg/mL
13 | CCCCCCNC(=O)c1cc(NCc2cc(O)ccc2O)ccc1O | 4350 nM | 18.5 µM | 15.2 µM | 28.8 µM | 7.69 µM | 25.2 µM | 578 nM | 3.41 µM | 15.1 µM | > 100 µM | 1200 nM | 13.4 µM | 13100 nM | 33.1 µM | 11.9 µM | 34.5 µM | 11800 nM | 25.4 µM | 25.8 µM | > 100 µM
